Earlier results as cited in patent US20240252348A1, “EVA SEGMENTED INTRAVAGINAL RINGS CONTAINING PROGESTERONE” (priority 2019, published 2024).

Tested on: women with a short cervix
Settings: singleton pregnant women with short cervical length (SCL)

CCCCCC(=O)O[C@]1(C(C)=O)CC[C@H]2[C@@H]3CCC4=CC(=O)CC[C@]4(C)[C@H]3CC[C@@]21C [Makena, 17-alpha hydroxyprogesterone caproate]
prevention of preterm birth: ineffective
